According to US20120022083A1, “SMALL MOLECULE MODULATORS OF CELL ADHESION” (ADHEREX TECHNOLOGIES, INC., priority 2008, published 2012):

T1: Ncad-Fc protein (chicken N-cadherin ectodomain fused to the Fc fragment of mouse IgG2b) (Gallus gallus, UniProt P10288)
T1 construct: chicken N-cadherin ectodomain fused to the Fc fragment of mouse IgG2b
T1 sequence (P10288 165-729 limits assumed): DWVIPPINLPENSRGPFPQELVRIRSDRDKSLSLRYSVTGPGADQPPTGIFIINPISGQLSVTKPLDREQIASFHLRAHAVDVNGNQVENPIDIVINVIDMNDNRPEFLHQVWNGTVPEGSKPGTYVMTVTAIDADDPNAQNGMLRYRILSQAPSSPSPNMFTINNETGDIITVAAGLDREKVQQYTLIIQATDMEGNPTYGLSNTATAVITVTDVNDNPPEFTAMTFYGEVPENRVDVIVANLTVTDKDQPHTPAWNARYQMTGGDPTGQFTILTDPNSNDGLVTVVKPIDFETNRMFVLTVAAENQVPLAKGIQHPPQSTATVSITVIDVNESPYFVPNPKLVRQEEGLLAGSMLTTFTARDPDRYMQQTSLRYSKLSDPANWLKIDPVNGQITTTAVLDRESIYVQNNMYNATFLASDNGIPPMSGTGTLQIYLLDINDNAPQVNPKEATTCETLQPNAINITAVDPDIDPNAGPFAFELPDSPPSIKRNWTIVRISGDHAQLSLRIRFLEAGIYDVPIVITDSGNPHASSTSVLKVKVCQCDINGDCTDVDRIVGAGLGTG


molecular target: T1, Ncad-Fc protein (chicken N-cadherin ectodomain fused to the Fc fragment of mouse IgG2b); assay: Ncad-Fc bead-bead aggregation assay; type: biochemical; settings: N-cadherin coated Dynabeads, 30 minutes to 1 hour at 37° C.
Protocol: Compounds of the invention were assayed according to the following procedures.
(§1) 10 μl of magnetic Dynabeads® Protein A (Prod. No. 100.01) were pipetted into a 1.5 ml eppendorf tube and washed with 0.5 ml of PBS (1×), 0.1% Tween 20, and 2 mM EGTA using the Dynal MPC-S Magnetic Particle Concentrator. Supernatant was aspirated, the magnet was removed and beads were washed once more with same buffer using the Dynal MPC-S Magnetic Particle Concentrator. Following this supernatant was once again removed and the beads were resuspended in 10 μl of PBS (1×), 0.1% Tween 20, and 2 mM EGTA buffer.
(§2) An equal 10 ul volume of Ncad-Fc protein (0.25 mg/10 μl, chicken N-cadherin ectodomain fused to the Fc fragment of mouse IgG2b) or human Fc (Jackson Immunoresearch, concentration 2.3 mg/ml) suspended in PBS (1×), 0.1% Tween 20, 2 mM EGTA and 1% BSA (Sigma, Prod. No. A0281) was added and incubated for 1-2 hours at room temperature on the Vortex Genie 2, followed by three washes in 0.5 ml of the same buffer. The beads were then resuspended in 80 μl PBS (1×) plus 1% BSA (dilution 1/8) and kept on ice.
The aggregation assay was performed in duplicates in 12 well/6 mm slides (CEL-LINE/ERIE SCIENTIFIC CO. Prod. No. 10-103). Experimentation was conducted in eppendorf tubes containing […] of DMEM medium ([…] glucose, Gibco Prod. No. 21 885-025)+10% Fetal Calf Serum (FCS) containing an N-cadherin inhibitor or calcium chelator (EDTA, EGTA) with the addition of 4 μl of N-cadherin coated Dynabeads®. The resulting bead solutions were gently mixed on ice followed by 50 μl of solution deposited per well.
Slides were incubated for 30 minutes to 1 hour at 37° C. and 5% CO2. After incubation two images per well were recorded on an inverted microscope (Nikon Diaphot) at 20× magnification, with an 8 Volt illumination using a Nikon D100. Images were analyzed using the Bead Counting software program from Metamorph (Meta Imaging Series 6.2r6).
In this assay, in the absence of inhibitor, the beads bind to each other and aggregate due to dimerization of the N-cadherin molecules on the surfaces of the beads. Accordingly, compounds effective for disrupting N-cadherin-mediated cell adhesion can be identified on the basis of whether they disrupt bead-bead aggregation in this assay.

Molecule | active in Ncad-Fc bead-bead aggregation assay (disrupt bead-bead aggregation)
Cc1nnc(-c2ccccn2)[nH]1 [compound 65-1, 2-(5-Methyl-4H-[1,2,4]Triazol-3-Yl)-Pyridine] | active
Cc1nnc(-c2ccncc2)[nH]1 [compound 67-1, 4-(5-Methyl-4H-[1,2,4]Triazol-3-Yl)-Pyridine] | active
Cc1nnc(-c2cccnc2)[nH]1 [compound 66-1, 3-(5-Methyl-4H-[1,2,4]Triazol-3-Yl)-Pyridine] | active
COc1cccc(-c2nnc(C)[nH]2)c1 [compound 11-1, 3-(3-Methoxyphenyl)-5-Methyl-4H-[1,2,4]Triazole] | active
COc1ccc(-c2nnc(C)[nH]2)cc1 [compound 12-1, 3-(4-Methoxyphenyl)-5-Methyl-4H-[1,2,4]Triazole] | active
Cc1nnc(-c2cccc(Cl)c2)[nH]1 [compound 8-1, 3-(3-Chlorophenyl)-5-Methyl-4H-[1,2,4]Triazole] | active

More lines, now with the values ahead:

active in Ncad-Fc bead-bead aggregation assay (disrupt bead-bead aggregation) | Molecule
active | Cc1nnc(-c2cccs2)[nH]1 [compound 68-1, 3-Methyl-5-Thiophen-2-Yl-4H-[1,2,4]Triazole]
active | CCc1nnc(-c2ccc(C(C)(C)C)cc2)[nH]1 [compound 1-1, 3-(4-Tert-Butylphenyl)-5-Ethyl-4H-[1,2,4]Triazole]
active | Cc1nnc(-c2ccc(C(C)(C)C)cc2)[nH]1 [compound 53-1, 3-(4-Tert-Butylphenyl)-5-Methyl-4H-[1,2,4]Triazole]
active | Cc1nnc(-c2ccc(Cl)cc2)[nH]1 [compound 9-1, 3-(4-Chlorophenyl)-5-Methyl-4H-[1,2,4]Triazole]
active | CC(C)(C)c1ccc(-c2nnc(N)[nH]2)cc1 [compound 50-1, 5-(4-Tert-Butylphenyl)-4H-[1,2,4]Triazol-3-Ylamine]
active | Cc1cccc(-c2nnc(C)[nH]2)c1 [compound 5-1, 3-Methyl-5-M-Tolyl-4H-[1,2,4]Triazole]
active | Cc1nnc(-c2ccc(Cl)c(Cl)c2)[nH]1 [compound 14-1, 3-(3,4-Dichlorophenyl)-5-Methyl-4H-[1,2,4]Triazole]
active | Cc1nnc(Cc2ccccc2)[nH]1 [compound 10-1, 3-Benzyl-5-Methyl-4H-[1,2,4]Triazole]
active | Cc1nnc(-c2ccccc2Cl)[nH]1 [compound 7-1, 3-(2-Chlorophenyl)-5-Methyl-4H-[1,2,4]Triazole]

tested on: retinal explants on substrate protein (Human N-cadherin-Fc or Laminin); assay: Culture of retinal explants and quantification of neurite outgrowth; type: cell-based, White Leghorn chick; settings: embryonic day 8 chick retina explants, examined approximately 20 hours after plating
Text: Tissue culture dishes were coated with nitrocellulose and allowed to dry (Lagenaur and Lemmon, [citation?] 1987). Substrate protein (Human N-cadherin-Fc or Laminin) was spread across the central region of each dish. Retinal explant cultures were made according to a previously described procedure (Halfter, W. et al., Dev. Biol., 95:56-64, 1983; Drazba, J. and Lemmon, V., Dev. Biol., 138:82-93, 1990). In brief, embryonic day 8 (stage 32-34 according to Hamburger and Hamilton, [citation?] 1951) White Leghorn chick eyes were dissected and the retina was flattened with the photoreceptor side down onto black nitrocellulose filters that had previously been incubated in concanavalin A. The filter was then cut into strips perpendicular to the optic fissure. Strips were inverted onto substrate-coated culture dishes so that the gang lion cell layer was directly adjacent to the substratum. N-cadherin small molecule antagonists were diluted in the culture medium and added at the time of plating. Neurite outgrowth was examined at approximately 20 hours after plating.
Neurite outgrowth from retina explants was catalogued using a SPOT RT digital camera and image acquisition software. The length of the five longest neurites per explant were measured (Burden-Gulley, S. M. and Brady-Kalnay, S. M. J. Cell Biol., 144:1323-1336, 1999). To measure neurite density, the region of neurite outgrowth was outlined to define the region of interest and the neurites were highlighted using Metamorph software. Data from similar experimental conditions were combined, analyzed by Student's t test and plotted.

Molecule | inhibit neurite outgrowth
CCc1nnc(-c2ccc(C(C)(C)C)cc2)[nH]1 [compound 1-1, 3-(4-Tert-Butylphenyl)-5-Ethyl-4H-[1,2,4]Triazole] | inhibit neurite outgrowth
Cc1nnc(-c2ccc(C(C)(C)C)cc2)[nH]1 [compound 53-1, 3-(4-Tert-Butylphenyl)-5-Methyl-4H-[1,2,4]Triazole] | inhibit neurite outgrowth
CC(C)(C)c1ccc(-c2nnc(C(F)F)[nH]2)cc1 [compound 57-1, 3-(4-Tert-Butylphenyl)-5-Difluoromethyl-4H-[1,2,4]Triazole] | inhibit neurite outgrowth
CC(C)(C)c1ccc(-c2nnc(C3CC3)[nH]2)cc1 [compound 22-1, 3-(4-Tert-Butylphenyl)-5-Cyclopropyl-4H-[1,2,4]Triazole] | inhibit neurite outgrowth
CC(C)(C)c1ccc(-c2nnc(-c3cnccn3)[nH]2)cc1 [compound 28-1, 2-[5-(4-Tert-Butylphenyl)-4H-[1,2,4]Triazol-3-Yl]-Pyrazine] | inhibit neurite outgrowth
Cc1cnc(-c2ccc(C(C)(C)C)cc2)[nH]1 [compound 64-1, 2-(4-Tert-Butylphenyl)-5-Methyl-1H-Imidazole] | inhibit neurite outgrowth
Cn1nc(-c2ccc(C(C)(C)C)cc2)nc1S [compound 46-1, 5-(4-Tert-Butylphenyl)-2-Methyl-2H-[1,2,4]Triazole-3-Thiol] | inhibit neurite outgrowth
COc1ccc(-c2nnc(S)[nH]2)cc1 [compound 69-2] | inhibit neurite outgrowth
Sc1nnc(-c2cccs2)[nH]1 [compound 69-4] | inhibit neurite outgrowth
CC(C)(C)c1ccc(-c2nnc(Cc3ccccc3)[nH]2)cc1 [compound 26-1, 3-Benzyl-5-(4-Tert-Butylphenyl)-4H-[1,2,4]Triazole] | inhibit neurite outgrowth
CC(C)c1nnc(-c2ccc(C(C)(C)C)cc2)[nH]1 [compound 21-1, 3-(4-Tert-Butylphenyl)-5-Isopropyl-4H-[1,2,4]Triazole] | inhibit neurite outgrowth
CC(C)(C)c1ccc(-c2nnc(C3CCC3)[nH]2)cc1 [compound 25-1, 3-(4-Tert-Butylphenyl)-5-Cyclobutyl-4H-[1,2,4]Triazole] | inhibit neurite outgrowth

Molecular target: the molecule itself
Assay: bead-bead aggregation assay, Ncad-Fc on Protein A Dynabeads, microscopy and bead counting
Settings: not given
Protocol: as §1, §2
The aggregation assay was performed in duplicates in 12 well/6 mm slides (CEL-LINE/ERIE SCIENTIFIC CO. Prod. No. 10-103). […]

Molecule | binding result
Ncad-Fc protein (chicken N-cadherin ectodomain fused to the Fc fragment of mouse IgG2b) (Fc fusion, UniProt P10288 165-729, looked up, extracellular domain; Captured on magnetic Dynabeads Protein A for the bead-bead aggregation assay; also called N-cadherin coated Dynabeads; not shown: Fc fragment of mouse IgG2b) DWVIPPINLPENSRGPFPQELVRIRSDRDKSLSLRYSVTGPGADQPPTGIFIINPISGQLSVTKPLDREQIASFHLRAHAVDVNGNQVENPIDIVINVIDMNDNRPEFLHQVWNGTVPEGSKPGTYVMTVTAIDADDPNAQNGMLRYRILSQAPSSPSPNMFTINNETGDIITVAAGLDREKVQQYTLIIQATDMEGNPTYGLSNTATAVITVTDVNDNPPEFTAMTFYGEVPENRVDVIVANLTVTDKDQPHTPAWNARYQMTGGDPTGQFTILTDPNSNDGLVTVVKPIDFETNRMFVLTVAAENQVPLAKGIQHPPQSTATVSITVIDVNESPYFVPNPKLVRQEEGLLAGSMLTTFTARDPDRYMQQTSLRYSKLSDPANWLKIDPVNGQITTTAVLDRESIYVQNNMYNATFLASDNGIPPMSGTGTLQIYLLDINDNAPQVNPKEATTCETLQPNAINITAVDPDIDPNAGPFAFELPDSPPSIKRNWTIVRISGDHAQLSLRIRFLEAGIYDVPIVITDSGNPHASSTSVLKVKVCQCDINGDCTDVDRIVGAGLGTG | binds
